Measurements published in ChEMBL document CHEMBL1201862, “PubChem BioAssay data set” (2004).
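Protocol summary: plate cells (96-well), add compound at 5 concentrations, incubate 48 h, interpolate endpoints linearly. At the GI50, growth is halved.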 Calls of active or inactive are those of the source. Cut-off read from the data, not from the text of the source: active = GI50 up to about 1.1 µM and inactive = higher.

Key:
Test in all cases: NCI anticancer screen, dose series, 48 h
[1] = tested on: 786-0
[2] = tested on: A498
[3] = tested on: A549
[4] = tested on: ACHN
[5] = tested on: CAKI-1
[6] = tested on: CCRF-CEM
[7] = tested on: COLO 205
[8] = tested on: DLD-1
[9] = tested on: DMS-114
[10] = tested on: DMS-273
[11] = tested on: EKVX
[12] = tested on: HCT-116
[13] = tested on: HCT-15
[14] = tested on: HL-60
[15] = tested on: HOP-18
[16] = tested on: HOP-62
[17] = tested on: HOP-92
[18] = tested on: HT-29
[19] = tested on: IGROV-1
[20] = tested on: K562
[21] = tested on: KM-20L2
[22] = tested on: KM12
[23] = tested on: LOX IMVI
[24] = tested on: LXFL 529
[25] = tested on: M14
[26] = tested on: M19-MEL
[27] = tested on: MOLT-4
[28] = tested on: Malme-3M
[29] = tested on: NCI-H226
[30] = tested on: NCI-H460
[31] = tested on: NCI-H522
[32] = tested on: OVCAR-3
[33] = tested on: OVCAR-4
[34] = tested on: OVCAR-5
[35] = tested on: OVCAR-8
[36] = tested on: RPMI-8226
[37] = tested on: RXF 393
[38] = tested on: RXF 631
[39] = tested on: SF-268
[40] = tested on: SF-295
[41] = tested on: SF-539
[42] = tested on: SK-MEL-28
[43] = tested on: SK-MEL-5
[44] = tested on: SN12C
[45] = tested on: SNB-19
[46] = tested on: SNB-78
[47] = tested on: SW-620
[48] = tested on: TK-10
[49] = tested on: U-251
[50] = tested on: UACC-257
[51] = tested on: UACC-62
[52] = tested on: UO-31
[53] = tested on: NCI-H23
[54] = tested on: SK-MEL-2
[55] = tested on: SK-OV-3
[56] = tested on: SNB-75
[57] = tested on: SR
[58] = tested on: XF498

COc1cc(/C=C/c2ccc(OC(C)=O)cc2)cc(OC)c1OC
GI50 [1]: 25.4 µM (inactive) | GI50 [2]: 23.6 µM (inactive) | GI50 [3]: 26.1 µM (inactive) | GI50 [4]: 15.5 µM (inactive) | GI50 [5]: 27.9 µM (inactive) | GI50 [6]: 11.6 µM (inactive) | GI50 [7]: 27.8 µM (inactive) | GI50 [8]: 32.3 µM (inactive) | GI50 [9]: 22.9 µM (inactive) | GI50 [10]: 26.9 µM (inactive) | GI50 [11]: 26.3 µM (inactive) | GI50 [12]: 26.9 µM (inactive) | GI50 [13]: 27.8 µM | GI50 [14]: 12.4 µM (inactive) | GI50 [15]: 55.3 µM (inactive) | GI50 [16]: 45.7 µM (inactive) | GI50 [17]: 30 µM (inactive) | GI50 [18]: 34.9 µM (inactive) | GI50 [19]: 32.4 µM (inactive) | GI50 [20]: 27.1 µM (inactive) | GI50 [21]: 33.7 µM (inactive) | GI50 [22]: 32 µM (inactive) | GI50 [23]: 29.2 µM (inactive) | GI50 [24]: 29.3 µM (inactive) | GI50 [25]: 27.9 µM (inactive) | GI50 [26]: 39.9 µM (inactive) | GI50 [27]: 16.7 µM (inactive) | GI50 [28]: 26 µM (inactive) | GI50 [29]: 35.8 µM (inactive) | GI50 [30]: 26.1 µM (inactive) | GI50 [31]: 17.9 µM (inactive) | GI50 [32]: 22.6 µM (inactive) | GI50 [33]: 22.8 µM (inactive) | GI50 [34]: 18 µM (inactive) | GI50 [35]: 31.2 µM (inactive) | GI50 [36]: 19.1 µM (inactive) | GI50 [37]: 11.1 µM (inactive) | GI50 [38]: 11.6 µM (inactive) | GI50 [39]: 32 µM (inactive) | GI50 [40]: 26.6 µM (inactive) | GI50 [41]: 18.6 µM (inactive) | GI50 [42]: 41.5 µM (inactive) | GI50 [43]: 18.6 µM (inactive) | GI50 [44]: 42 µM (inactive) | GI50 [45]: 34 µM (inactive) | GI50 [46]: 35.1 µM (inactive) | GI50 [47]: 43.5 µM (inactive) | GI50 [48]: 31.9 µM (inactive) | GI50 [49]: 28 µM (inactive) | GI50 [50]: 33.4 µM (inactive) | GI50 [51]: 15.4 µM (inactive) | GI50 [52]: 21.1 µM (inactive)

O=S(=O)(O)c1ccc(/N=N/c2nc(C(F)(F)F)c(C(F)(F)F)[nH]2)cc1
GI50 [1]: > 100 µM (inactive) | GI50 [3]: 61.8 µM (inactive) | GI50 [4]: > 100 µM (inactive) | GI50 [5]: 29.2 µM (inactive) | GI50 [6]: 45.4 µM (inactive) | GI50 [7]: 74.8 µM (inactive) | GI50 [8]: 43.5 µM (inactive) | GI50 [9]: 16.8 µM (inactive) | GI50 [10]: > 100 µM (inactive) | GI50 [11]: 43.5 µM (inactive) | GI50 [12]: 37.7 µM (inactive) | GI50 [13]: 31.4 µM | GI50 [14]: 32.1 µM (inactive) | GI50 [15]: 25.5 µM (inactive) | GI50 [16]: 36.6 µM (inactive) | GI50 [17]: 16.6 µM (inactive) | GI50 [18]: 77.1 µM (inactive) | GI50 [19]: > 100 µM (inactive) | GI50 [20]: 53.8 µM (inactive) | GI50 [21]: 76.7 µM (inactive) | GI50 [22]: > 100 µM (inactive) | GI50 [23]: 15.8 µM (inactive) | GI50 [24]: 87.3 µM (inactive) | GI50 [25]: 20.8 µM (inactive) | GI50 [26]: 39.2 µM (inactive) | GI50 [27]: 24.2 µM (inactive) | GI50 [28]: 29.2 µM (inactive) | GI50 [29]: 31.5 µM (inactive) | GI50 [53]: 24.2 µM (inactive) | GI50 [30]: 82 µM (inactive) | GI50 [32]: 33 µM (inactive) | GI50 [33]: 21.6 µM (inactive) | GI50 [34]: 18.1 µM (inactive) | GI50 [35]: 29.4 µM (inactive) | GI50 [36]: > 100 µM (inactive) | GI50 [37]: 18.4 µM (inactive) | GI50 [38]: 30.8 µM (inactive) | GI50 [39]: 56.5 µM (inactive) | GI50 [40]: 65.2 µM (inactive) | GI50 [41]: 29.6 µM (inactive) | GI50 [42]: 19.2 µM (inactive) | GI50 [54]: 30.3 µM (inactive) | GI50 [43]: > 100 µM (inactive) | GI50 [55]: > 100 µM (inactive) | GI50 [44]: 66.5 µM (inactive) | GI50 [45]: 29.9 µM (inactive) | GI50 [56]: 75.9 µM (inactive) | GI50 [46]: 96.2 µM (inactive) | GI50 [57]: 21.2 µM (inactive) | GI50 [47]: 41.5 µM (inactive) | GI50 [48]: > 100 µM (inactive) | GI50 [49]: 41.9 µM (inactive) | GI50 [50]: 69.5 µM (inactive) | GI50 [51]: 28.4 µM (inactive) | GI50 [52]: 34 µM (inactive) | GI50 [58]: 17.2 µM (inactive)
